The text below walks through data of US20060286131A1, “Use of stellate ganglion block for the treatment of hot flashes and other conditions” (priority 2005, published 2006).

In this assay the test system is severe menopausal hot flashes. Nature of the assay: stellate ganglion block with Marcaine in women with hot flashes, self-reported pre and post block. Type of assay: in vivo. An excerpt: A stellate ganglion block is illustratively performed by placing the patient in the supine position (on the back) with the neck slightly extended and the jaw open. While the patient is usually conscious for the procedure, a medication such as Versed (midazolam hydrochloride), fentanyl, or other sedative is often administered, to relax the patient. A local anesthetic is also usually administered, to numb the skin and tissue down to the ganglion nerve. A needle is inserted toward the stellate ganglion. […] The needle 20 is shown inserted adjacent to the stellate ganglion 10. In the illustrative block, a contrast solution is injected through needle 20 via syringe 22, and the needle position is confirmed by fluoroscopy or other means, as are known in the art.
The anesthetic 30 is then injected via needle 20 into stellate ganglion 10. Illustratively, 5 cc 0.375% Marcaine® (bupivacaine) may be used. However, it is understood that other anesthetics, illustratively lidocaine, morphine or other opioids, clonidine, botox, or tetracine, or a combination of anesthetic and epinephrine, may be used and that the dosage range may vary depending on the particular anesthetic and other factors, as are known in the art. Needle 20 is removed, and the patient is optionally placed in the sitting position to facilitate the spread of anesthesia inferiorly to the stellate ganglion. Illustratively, longer acting anesthetics such as bupivacaine are used, but other anesthetics may be used, as are known in the art. The stellate ganglion block may also be performed by radiofrequency lesioning, as is known in the art.
Six women suffering from severe menopausal hot flashes each received a standard stellate ganglion block (0.375% Marcaine, 5cc), as described above. Hot flashes were assessed by self-reporting pre and post stellate ganglion block.

Turning to `CCCCN1CCCCC1C(=O)Nc1c(C)cccc1C` (stereo not shown) [Marcaine, bupivacaine], the “additional asymptomatic period of relief after second stellate ganglion block” value (0.375% Marcaine 5cc, second block after mild hot flashes returned) is 4-18 weeks. Moreover, the “hot flash relief of repeated blocks compared with the initial block” value (repeated blocks, each case) is reported as “equal to or greater than that of the initial block”. Where the note is “six women, 0.375% Marcaine 5cc”, the “success of initial stellate ganglion block, evidenced by positive Horner's syndrome and anhydrosis” value was “successful in all six subjects”. Moreover, the “complete alleviation of hot flashes, duration after initial stellate ganglion block” value (six women, 0.375% Marcaine 5cc, first block, self-reported) is on record as 2-5 weeks.
